Test systems include HCT-116 colon; HOP-62 NSCLC; HT29 colon; IGROV1 ovarian; LOX IMVI melanoma; MALME-3M melanoma; OVCAR-8 ovarian; SF-268 CNS; SW-620 colon; U251 CNS.
Holding throughout (experiment): NCI anticancer screen, dose series, 48 h

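In this assay, cells in 96-well plates receive the compound at five concentrations for 48 hours. Endpoints are linearly interpolated between the surrounding concentrations. GI50 marks 50% less growth. TGI denotes the concentration required for complete inhibition of growth.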

For `CCn1c2c(c3ccccc31)[C@@H](c1ccc(Cl)cc1)CC1C(=O)N(c3ccccc3)C(=O)C21` (some centres undefined), the TGI in the experiment with HCT-116 colon, in the experiment with HOP-62 NSCLC, in the experiment on HT29 colon, in the experiment with IGROV1 ovarian, with LOX IMVI melanoma and in the experiment on MALME-3M melanoma was over 100 µM throughout. In addition, the TGI in the experiment with OVCAR-8 ovarian, in the experiment with SF-268 CNS, in the experiment with SW-620 colon and in the experiment on U251 CNS was over 100 µM in each case.
With `Cc1cccc(C)c1N1C(=O)C(=O)C(c2nc3ccccc3s2)/C(=N/NC(=O)c2ccccc2O)C1=O` (centres undefined), the TGI in the experiment with HCT-116 colon was over 79.5 µM; in the experiment with HOP-62 NSCLC, over 100 µM; with HT29 colon, over 100 µM; in the experiment on IGROV1 ovarian, over 82.2 µM; in the experiment with LOX IMVI melanoma, over 100 µM; in the experiment with MALME-3M melanoma, over 100 µM. Besides, the TGI in the experiment with OVCAR-8 ovarian is over 100 µM; in the experiment on SF-268 CNS it was over 68.8 µM; in the experiment on SW-620 colon, over 100 µM; in the experiment on U251 CNS it was over 100 µM.
For the compound `O=C(Nc1ccc(F)cc1)Nc1ccc(Br)c(C(F)(F)F)c1`, the GI50 with HCT-116 colon is 1720 nM; in the experiment with HT29 colon, 2300 nM; in the experiment on IGROV1 ovarian it was 3580 nM; with LOX IMVI melanoma, 2510 nM; in the experiment with MALME-3M melanoma it was 2120 nM; in the experiment with OVCAR-8 ovarian, 2950 nM. In addition, the GI50 with SF-268 CNS is 2970 nM; in the experiment on SW-620 colon, 3220 nM; in the experiment with U251 CNS, 2140 nM. Besides, the TGI with HCT-116 colon came out at 9.33 µM; with HT29 colon, 10.9 µM; with IGROV1 ovarian it was 15.2 µM; in the experiment on LOX IMVI melanoma, 7.39 µM; with MALME-3M melanoma, 5.8 µM; in the experiment on OVCAR-8 ovarian it was 15.2 µM. Further, the TGI in the experiment on SF-268 CNS amounted to 13.2 µM; in the experiment with SW-620 colon, 12.7 µM; in the experiment on U251 CNS it was 7.47 µM.
For `O=C(CI)Nc1ccc(O)c2ccccc12`, the GI50 in the experiment on HCT-116 colon is 481 nM; in the experiment on HOP-62 NSCLC, 2270 nM; in the experiment on HT29 colon, 504 nM; in the experiment with IGROV1 ovarian it was 296 nM; in the experiment on LOX IMVI melanoma it was 1280 nM; with MALME-3M melanoma it was 547 nM. In addition, the GI50 is 1930 nM with OVCAR-8 ovarian, 2030 nM with SF-268 CNS, 282 nM with SW-620 colon and 1570 nM in the experiment with U251 CNS. Moreover, the TGI in the experiment with HCT-116 colon is 1.16 µM; with HOP-62 NSCLC, 5.14 µM; in the experiment on HT29 colon, 2.8 µM; in the experiment on IGROV1 ovarian, 0.926 µM; in the experiment on LOX IMVI melanoma, 2.68 µM; in the experiment with MALME-3M melanoma, 1.16 µM. In addition, the TGI with OVCAR-8 ovarian was found to be 7.15 µM; in the experiment with SF-268 CNS, 5.56 µM; in the experiment on SW-620 colon it was 0.886 µM; with U251 CNS, 3.11 µM.
Regarding `C[n+]1c2ccccc2nc2ccccc21`, the GI50 in the experiment with HCT-116 colon is 820 nM; in the experiment on HOP-62 NSCLC, 3660 nM; in the experiment on HT29 colon it was 1760 nM; with IGROV1 ovarian it was 2860 nM; in the experiment on LOX IMVI melanoma it was 819 nM; with MALME-3M melanoma it was 1220 nM. Also, the GI50 in the experiment with OVCAR-8 ovarian is 2610 nM; in the experiment on SF-268 CNS it was 2520 nM; with SW-620 colon, 1370 nM; with U251 CNS, 1440 nM. Besides, the TGI is 2.89 µM in the experiment on HCT-116 colon; 10.7 µM in the experiment on HOP-62 NSCLC; 12 µM in the experiment with HT29 colon; 14 µM in the experiment on IGROV1 ovarian; 2.38 µM with LOX IMVI melanoma; 2.7 µM in the experiment on MALME-3M melanoma. The TGI is 20.6 µM in the experiment with OVCAR-8 ovarian, 7.78 µM in the experiment with SF-268 CNS, 3.26 µM in the experiment with SW-620 colon and 3.09 µM in the experiment on U251 CNS.
For `Cc1cc(C)c(C(=O)O)c(SSc2cc(C)cc(C)c2C(=O)O)c1`, the TGI in the experiment with HOP-62 NSCLC, in the experiment with HT29 colon, in the experiment with LOX IMVI melanoma, in the experiment with MALME-3M melanoma, with OVCAR-8 ovarian and with SF-268 CNS was over 100 µM each time. For the same compound, the TGI in the experiment with SW-620 colon and in the experiment with U251 CNS was over 100 µM throughout.
As for `CC(=O)NC(CSC1=C2NC(=O)\C=C/C=C/C=C\C(C)C(O)CC(=O)/C(C)=C\CC(O)/C=C/C(C)C(O)C(C)C=C(C)C(=O)c3c(O)c(C)cc(c3C1=O)C2=O)C(=O)O` (centres undefined), the TGI with HCT-116 colon, in the experiment with HOP-62 NSCLC, in the experiment with HT29 colon, in the experiment with IGROV1 ovarian, with LOX IMVI melanoma and with MALME-3M melanoma was over 100 µM each time. Further, the TGI with OVCAR-8 ovarian, with SW-620 colon and in the experiment on U251 CNS was over 100 µM each time.
With `CC1(C)OC(=O)C(C#N)=C1C[n+]1ccccc1`, the TGI in the experiment with HOP-62 NSCLC, with HT29 colon, with IGROV1 ovarian, in the experiment with LOX IMVI melanoma, with MALME-3M melanoma and with OVCAR-8 ovarian was over 10 µM in each case. Besides, the TGI in the experiment on SF-268 CNS, with SW-620 colon and in the experiment on U251 CNS was over 10 µM in each case.
For `CC1CC(C)C2OC2(C)C[C@H](C)C(=O)NC(C)C(=O)N(C)[C@H](Cc2c(Br)[nH]c3ccccc23)C(=O)N[C@@H](c2ccc(O)cc2)CC(=O)O1` (some centres undefined), the TGI in the experiment on HCT-116 colon was over 33.1 µM; in the experiment with HOP-62 NSCLC, 1.4 µM; in the experiment on IGROV1 ovarian, 0.683 µM; in the experiment with LOX IMVI melanoma it was 1.66 µM; with MALME-3M melanoma, 14 µM; in the experiment on OVCAR-8 ovarian, over 52.7 µM. In addition, the TGI in the experiment on SW-620 colon was over 90.2 µM; in the experiment with U251 CNS, 2.98 µM.
For `CCCN(CCC)C(=O)c1nc(N)nc(-c2ccc(OC)cc2)c1-c1ccc(OC)cc1`, the TGI with HCT-116 colon, with HT29 colon, in the experiment on IGROV1 ovarian, in the experiment on MALME-3M melanoma, with OVCAR-8 ovarian and with SF-268 CNS was over 100 µM each time. Besides, the TGI with SW-620 colon and in the experiment with U251 CNS was over 100 µM throughout.
On to `Cc1nc(/C=C2\C(=O)C=Cc3ccccc32)c(O)o1`, for which the TGI in the experiment with HCT-116 colon, with HOP-62 NSCLC, in the experiment with HT29 colon, in the experiment with IGROV1 ovarian, in the experiment on MALME-3M melanoma and with OVCAR-8 ovarian was over 100 µM each time. The TGI in the experiment with SF-268 CNS, in the experiment with SW-620 colon and in the experiment on U251 CNS was over 100 µM each time.

The values above are taken from PubChem BioAssay (NCI).
